Consider one compound from patent publication US7034047B2, “Triazole derivative” (Astellas Pharma, Inc., priority 2000, dated 2006).

Test [1] has as its system (+)-HA966-induced enhancement of activity. The experiment in a line: (+)-HA966-induced enhancement of activity in mouse. Format: in vivo, male ICR mouse. The note with it: orally given at 10 mg/kg; below 50% judged to have the effect. An excerpt: Compound 1: • 3-(biphenyl-4-yl)-4-(2-methoxyphenyl)-5-methyl-4H-1,2,4-triazole (Japanese Patent unexamined uplication No. 2000-63363; Example 33) Compound 2: • 3-(biphenyl-4-yl)-5-(furan-2-yl)-4-phenyl-4H-1,2,4-triazole (LTPBP42 CD-ROM catalog 1996 of LaboTest Co. (Freiberg, Germany)) Compound 3: • 3-(biphenyl-4-yl)-5-ethyl-4-(2-methoxyphenyl)-4H-1,2,4-triazole (Japanese Patent unexamined publication No. 2000-63363; Example 23) 2. Experimental Method of (+)-HA966—Induced Enhancement of Activity in Mouse
The method reported previously (J. Neural Transm., 97: 175–185, 1994) was used for carrying out the experiment with modification. • Animal: male ICR mouse (Nippon SLC; age 5 to 7 weeks) • Chemical drug: reserpine (Apoplon Injection of 1 mg/ml; manufactured by Daiichi Pharmaceuticals Co., Ltd.), (+)-HA966 (Proc. Nat. Acad. Sci. U.S.A., 87, 347–351, 1990), α-methyl-para-tyrosine methyl ester (Sigma,Inc.). • Experimental apparatus: Supermex (Muromachi Machine) Experimental Method • (1) Pharmaceutical drug-treated groups were defined as follows. […] The effect was determined as follows. […] It was calculated by following formula. […]

The subject of test [2] is (+)-HA966-induced learning disability. Briefly: (+)-HA966-induced learning disability (mouse passive avoidance test). Conditions: dosed intraperitoneally; step-through latency, p<0.05. It counts as in vivo, male ddY mouse. From the text: 3. (+)-HA966-Induced Learning Disability (Mouse Passive Avoidance Test)
• Animal: male ddY mouse (Nippon SLC; age 7 to 9 weeks at training) was used. 16 to 32 animals were used per one group. <Experimental Procedures> Preparation of Pharmaceutical Drugs • (1) A test compound for oral administration was suspended in aqueous 0.5%methyl cellulose solution, and for intraperitoneal administration was suspended in solution dissolved 0.5% of methyl cellulose solution in saline (hereinafter referred to as 0.5% methyl cellulose solution). The administration volume was 10 ml per 1 kg·body weight. […]
• (1) On day 1 at the learning experiment, the mice were acclimated in an experimental room for one hour or longer. • (2) A test compound or the vehicle was orally or intraperitoneally given. • (3) 20 minutes thereafter, (+)-HA966 was administered at 60 μg intracerebroventriculally. • (4) 15 minutes after the dosing of (+)-HA966, the each mouse was placed in the bright room of the experimental apparatus of the passive avoidance reaction test, where the mouse was left for 30 seconds. […] A significance was determined at p<0.05.

With `CC(C)c1nnc(-c2ccc(-c3ccccc3)cc2)n1-c1ccccc1F` [Production Example 1, 3-Biphenyl-4-yl-4-(2-fluorophenyl)-5-isopropyl-4H-1,2,4-triazole], in test [1], the “normalized activity ((+)-HA966-induced enhancement = 100%)” value is listed as 43%. The minimum effective dose in test [2] is 3 mg/kg.
